Here are results for 10 molecules from ChEMBL document CHEMBL1122580, “Adenosine deaminase inhibitors. Synthesis of deaza analogues of erythro-9-(2-hydroxy-3-nonyl)adenine” (J Med Chem, 1984).

One assay has as its target T1, Adenosine deaminase (Bos taurus, UniProt P56658).
T1 sequence (P56658 whole entry): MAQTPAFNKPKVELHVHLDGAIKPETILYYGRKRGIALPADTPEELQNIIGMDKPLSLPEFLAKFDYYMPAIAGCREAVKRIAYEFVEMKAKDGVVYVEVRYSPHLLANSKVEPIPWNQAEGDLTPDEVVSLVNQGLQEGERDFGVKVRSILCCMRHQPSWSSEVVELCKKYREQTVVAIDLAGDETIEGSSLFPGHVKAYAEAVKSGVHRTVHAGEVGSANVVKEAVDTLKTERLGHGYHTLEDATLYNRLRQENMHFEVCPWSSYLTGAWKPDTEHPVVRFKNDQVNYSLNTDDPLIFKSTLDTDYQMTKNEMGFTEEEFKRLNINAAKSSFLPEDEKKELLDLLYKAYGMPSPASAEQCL
Briefly: Binding affinity against calf intestine adenosine deaminase enzyme.
Take `OC[C@H]1OC(n2cnc3cccnc32)[C@H](O)[C@@H]1O` (stereo not given in full): the affinity, expressed as Ki, was 42000 nM.

With `CCCCCCC(C(C)O)n1cnc2c(N)ccnc21` (stereo not given), the affinity corresponds to a Ki of 160 nM. In the case of `OC[C@H]1O[C@@H](n2cnc3cncnc32)[C@H](O)[C@@H]1O` [NEBULARINE], the Ki (in general, the equilibrium dissociation constant of an inhibitor or competing ligand from its target) worked out at 15000 nM. Same read-out and setting: the value for `CCCCCCC(C(C)O)n1cnc2cnccc21` (stereo not given) was 120 nM; that for `CCCCCC[C@@H]([C@@H](C)O)n1cnc2c(N)ncnc21` [EHNA] was 7 nM. In turn, `CCCCCCC(C(C)O)n1cnc2c(N)nccc21` (stereo not given) displayed a Ki of 10 nM. `Nc1ccnc2c1ncn2[C@@H]1O[C@H](CO)[C@@H](O)[C@H]1O` registered a Ki of 660 nM. The same measure, in the same setting: the same measure for `CCCCCCC(C(C)O)n1cnc2cncnc21` (stereo not given): 840 nM. The molecule `Nc1nccc2c1ncn2[C@@H]1O[C@H](CO)[C@@H](O)[C@H]1O` came in with a Ki of 360000 nM.

The target of another assay is T1, Adenosine deaminase. Briefly: Binding affinity against calf intestine adenosine deaminase enzyme; Not Active.
Regarding `OC[C@H]1O[C@@H](n2cnc3cnccc32)[C@H](O)[C@@H]1O`, the Ki result is given as “Not Active”.
